The record followed here is ChEMBL document CHEMBL5214956, “Structure-based design and modular synthesis of novel PI4K class II inhibitors bearing a 4-aminoquinazoline scaffold” (Bioorg Med Chem Lett, 2022).

Assay [1] deals with Phosphatidylinositol 4-kinase alpha (Homo sapiens, UniProt P42356). Description: Inhibition of PI4KA catalytic domain (unknown origin) assessed as enzyme residual activity incubated for 60 mins using ATP as substrate by ATP-Glo luminescent assay.
Assay [2] deals with Phosphatidylinositol 4-kinase beta (Homo sapiens, UniProt Q9UBF8). Description: Inhibition of PI4KB catalytic domain (unknown origin) assessed as enzyme residual activity incubated for 60 mins using ATP as substrate by ATP-Glo luminescent assay.
In assay [3] the target is Phosphatidylinositol 4-kinase type 2-alpha (Homo sapiens, UniProt Q9BTU6). Put plainly: Inhibition of PI4K2A catalytic domain (unknown origin) assessed as enzyme residual activity incubated for 60 mins using ATP as substrate by ATP-Glo luminescent assay.

SMILES strings stand for the structures.

Chain of Phosphatidylinositol 4-kinase alpha (P42356 whole entry, the tested form may be a part): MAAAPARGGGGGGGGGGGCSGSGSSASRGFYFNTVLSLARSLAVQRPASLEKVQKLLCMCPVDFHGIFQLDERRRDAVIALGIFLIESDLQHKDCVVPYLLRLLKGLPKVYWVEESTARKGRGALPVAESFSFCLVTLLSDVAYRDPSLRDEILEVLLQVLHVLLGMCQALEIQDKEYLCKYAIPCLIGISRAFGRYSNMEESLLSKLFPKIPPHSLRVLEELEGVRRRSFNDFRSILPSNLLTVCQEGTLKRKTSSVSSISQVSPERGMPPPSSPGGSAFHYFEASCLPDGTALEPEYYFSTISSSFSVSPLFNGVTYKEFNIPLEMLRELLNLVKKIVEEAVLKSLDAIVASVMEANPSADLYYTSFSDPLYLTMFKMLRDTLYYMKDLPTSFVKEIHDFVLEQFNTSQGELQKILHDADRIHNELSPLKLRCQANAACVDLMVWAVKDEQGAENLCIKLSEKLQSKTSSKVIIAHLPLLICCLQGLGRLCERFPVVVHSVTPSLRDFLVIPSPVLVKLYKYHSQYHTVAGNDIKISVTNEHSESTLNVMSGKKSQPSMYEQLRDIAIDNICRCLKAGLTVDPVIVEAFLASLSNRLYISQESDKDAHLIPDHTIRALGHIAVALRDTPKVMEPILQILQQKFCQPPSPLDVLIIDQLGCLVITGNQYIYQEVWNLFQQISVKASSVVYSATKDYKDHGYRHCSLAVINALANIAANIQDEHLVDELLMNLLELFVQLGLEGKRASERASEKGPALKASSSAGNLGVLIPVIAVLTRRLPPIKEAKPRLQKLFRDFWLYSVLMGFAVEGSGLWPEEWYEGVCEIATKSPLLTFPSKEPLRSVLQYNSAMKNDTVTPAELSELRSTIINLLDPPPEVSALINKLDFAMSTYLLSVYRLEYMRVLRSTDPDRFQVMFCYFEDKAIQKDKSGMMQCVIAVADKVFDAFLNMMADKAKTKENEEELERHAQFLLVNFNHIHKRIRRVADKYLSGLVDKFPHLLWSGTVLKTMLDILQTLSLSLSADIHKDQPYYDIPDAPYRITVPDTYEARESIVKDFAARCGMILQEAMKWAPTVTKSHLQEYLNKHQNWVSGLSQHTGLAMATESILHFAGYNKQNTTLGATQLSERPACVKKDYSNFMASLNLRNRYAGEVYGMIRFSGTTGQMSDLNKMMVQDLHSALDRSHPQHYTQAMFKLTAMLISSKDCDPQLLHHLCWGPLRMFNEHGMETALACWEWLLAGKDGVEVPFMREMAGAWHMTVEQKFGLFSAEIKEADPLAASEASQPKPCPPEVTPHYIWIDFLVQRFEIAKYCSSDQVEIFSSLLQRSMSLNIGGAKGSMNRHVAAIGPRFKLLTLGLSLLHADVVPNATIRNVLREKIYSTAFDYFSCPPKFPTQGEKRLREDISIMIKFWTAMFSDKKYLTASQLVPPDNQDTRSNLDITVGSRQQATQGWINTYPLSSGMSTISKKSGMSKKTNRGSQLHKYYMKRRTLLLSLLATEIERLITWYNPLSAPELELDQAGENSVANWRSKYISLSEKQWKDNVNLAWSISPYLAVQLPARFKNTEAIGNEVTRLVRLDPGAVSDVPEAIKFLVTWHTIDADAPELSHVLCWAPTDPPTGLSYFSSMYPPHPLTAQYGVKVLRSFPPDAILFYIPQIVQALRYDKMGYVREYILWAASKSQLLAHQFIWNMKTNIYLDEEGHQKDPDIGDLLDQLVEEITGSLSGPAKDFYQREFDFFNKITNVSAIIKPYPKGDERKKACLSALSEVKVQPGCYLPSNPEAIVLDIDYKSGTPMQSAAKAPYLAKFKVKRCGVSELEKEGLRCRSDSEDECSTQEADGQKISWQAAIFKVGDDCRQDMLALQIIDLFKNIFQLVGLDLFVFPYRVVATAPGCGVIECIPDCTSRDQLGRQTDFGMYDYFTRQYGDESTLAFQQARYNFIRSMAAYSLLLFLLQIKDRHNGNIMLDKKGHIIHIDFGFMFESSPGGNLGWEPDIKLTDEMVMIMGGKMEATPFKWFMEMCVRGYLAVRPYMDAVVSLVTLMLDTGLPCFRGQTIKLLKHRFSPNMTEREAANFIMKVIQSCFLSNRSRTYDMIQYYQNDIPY
Chain of Phosphatidylinositol 4-kinase beta (Q9UBF8 whole entry, the tested form may be a part): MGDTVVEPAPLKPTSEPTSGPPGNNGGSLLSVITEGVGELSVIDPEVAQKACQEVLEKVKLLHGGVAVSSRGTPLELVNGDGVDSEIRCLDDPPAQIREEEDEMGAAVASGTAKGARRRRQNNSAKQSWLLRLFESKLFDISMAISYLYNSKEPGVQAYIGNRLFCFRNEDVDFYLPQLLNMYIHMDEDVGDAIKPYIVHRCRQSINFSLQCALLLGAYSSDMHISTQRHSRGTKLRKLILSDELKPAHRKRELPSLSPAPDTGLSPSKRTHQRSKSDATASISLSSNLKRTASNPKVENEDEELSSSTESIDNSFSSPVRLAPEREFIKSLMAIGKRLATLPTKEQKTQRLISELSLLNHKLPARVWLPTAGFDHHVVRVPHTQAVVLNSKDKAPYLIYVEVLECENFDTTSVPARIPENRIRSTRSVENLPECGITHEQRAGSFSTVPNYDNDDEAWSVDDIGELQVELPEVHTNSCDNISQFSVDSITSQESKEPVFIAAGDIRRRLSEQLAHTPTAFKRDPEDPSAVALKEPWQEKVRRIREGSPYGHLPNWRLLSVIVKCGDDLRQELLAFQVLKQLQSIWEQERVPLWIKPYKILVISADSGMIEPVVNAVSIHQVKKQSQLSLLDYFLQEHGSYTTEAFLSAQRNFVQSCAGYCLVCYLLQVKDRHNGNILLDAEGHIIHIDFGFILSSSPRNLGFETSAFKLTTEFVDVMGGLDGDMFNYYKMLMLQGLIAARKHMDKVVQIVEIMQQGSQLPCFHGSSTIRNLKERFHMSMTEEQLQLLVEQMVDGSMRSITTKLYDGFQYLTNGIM
Chain of Phosphatidylinositol 4-kinase type 2-alpha (Q9BTU6 whole entry, the tested form may be a part): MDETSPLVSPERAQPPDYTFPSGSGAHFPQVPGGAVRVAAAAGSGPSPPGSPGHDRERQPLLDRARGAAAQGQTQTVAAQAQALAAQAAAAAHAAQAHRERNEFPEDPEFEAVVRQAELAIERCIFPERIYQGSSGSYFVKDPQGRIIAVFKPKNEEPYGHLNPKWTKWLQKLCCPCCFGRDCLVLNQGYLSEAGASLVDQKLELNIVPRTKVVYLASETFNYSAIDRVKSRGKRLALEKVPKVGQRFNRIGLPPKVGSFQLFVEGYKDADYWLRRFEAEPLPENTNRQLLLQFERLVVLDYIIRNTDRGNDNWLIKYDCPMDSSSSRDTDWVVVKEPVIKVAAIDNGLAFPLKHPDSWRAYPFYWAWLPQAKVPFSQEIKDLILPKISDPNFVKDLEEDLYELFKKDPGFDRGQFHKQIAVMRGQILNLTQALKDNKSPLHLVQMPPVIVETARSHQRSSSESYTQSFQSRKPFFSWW

What is called IC50 is the concentration that inhibits the measured activity by half. In the case of `NC(=O)c1cc2c(N)ncnc2cc1-c1ccc2cc[nH]c2c1`, the half-inhibitory concentration (IC50) in assay [1] and in assay [2] was above 50 µM each time.
With `CCCCc1cc(=O)oc2cc(OCC(=O)N[C@@H](Cc3c[nH]c4ccc(O)cc34)C(=O)O)ccc12`, the results for the 50% inhibitory concentration (IC50) in assay [3], in assay [1] and in assay [2] were 1.46 µM, above 50 µM and above 50 µM, respectively.
Consider `Nc1ncnc2c1ncn2[C@@H]1C[C@@]2(CO)CC[C@@H]1C2`, for which the IC50 in assay [1] and in assay [2] was above 50 µM in each case.
Turning to `NC(=O)c1cc2c(N)ncnc2cc1-c1ccc2[nH]ccc2c1`, the IC50 in assay [1] and in assay [2] was above 50 µM each time.
In the case of `NC(=O)c1cc2c(N)ncnc2cc1-c1ccc2[nH]cnc2c1`, the IC50 in assay [1] was above 50 µM.
`NC(=O)c1cc2c(N)ncnc2cc1-c1cncc(CO)c1`: the half-inhibitory concentration (IC50) in assay [3] is above 50 µM.
With `NC(=O)c1cc2c(N)ncnc2cc1-c1cccc(CO)c1`, the IC50 in assay [1] and in assay [2] was above 50 µM throughout.
Take `COC[C@H]1OC(=O)c2coc3c2[C@@]1(C)C1=C(C3=O)[C@@H]2CCC(=O)[C@@]2(C)C[C@H]1OC(C)=O` [WORTMANNIN]: the half-inhibitory concentration (IC50) in assay [3] was above 30 µM; in assay [1] it was 0.28 µM; in assay [2], 0.44 µM.
In the case of `NC(=O)c1cc2c(N)ncnc2cc1-c1ccc(CO)o1`, the IC50 in assay [3] is above 50 µM.
`CC(=O)Nc1cccc(-c2cc3ncnc(N)c3cc2C(N)=O)c1`: the IC50 in assay [1] and in assay [2] was above 50 µM in each case.
As to `NC(=O)c1cc2c(N)ncnc2cc1-c1ccc2c(c1)OCO2`, the IC50 in assay [1] and in assay [2] was above 50 µM in each case.
As to `NC(=O)c1cc2c(N)ncnc2cc1-c1ccc2c(c1)CCO2`, the IC50 in assay [1] and in assay [2] was above 50 µM each time.
